Source: patent US8012959B2, “Diaminopyrimidinecarboxamide derivative” (Astellas Pharma Inc., priority 2002, dated 2011)
Counter-ions that a name gives are not always drawn.

Key:
STAT 6 [1] = target: T1, STAT 6 (Homo sapiens, UniProt P42226); test: STAT 6 tyrosine phosphorylation in IL-4-stimulated H292 cell (western blotting); type: cell-based; settings: 1 μM compound, 10 ng/ml human IL-4, disappearance of the about 110 kDa band
T1 construct: host or cells: H292
T1 sequence (P42226 1-847): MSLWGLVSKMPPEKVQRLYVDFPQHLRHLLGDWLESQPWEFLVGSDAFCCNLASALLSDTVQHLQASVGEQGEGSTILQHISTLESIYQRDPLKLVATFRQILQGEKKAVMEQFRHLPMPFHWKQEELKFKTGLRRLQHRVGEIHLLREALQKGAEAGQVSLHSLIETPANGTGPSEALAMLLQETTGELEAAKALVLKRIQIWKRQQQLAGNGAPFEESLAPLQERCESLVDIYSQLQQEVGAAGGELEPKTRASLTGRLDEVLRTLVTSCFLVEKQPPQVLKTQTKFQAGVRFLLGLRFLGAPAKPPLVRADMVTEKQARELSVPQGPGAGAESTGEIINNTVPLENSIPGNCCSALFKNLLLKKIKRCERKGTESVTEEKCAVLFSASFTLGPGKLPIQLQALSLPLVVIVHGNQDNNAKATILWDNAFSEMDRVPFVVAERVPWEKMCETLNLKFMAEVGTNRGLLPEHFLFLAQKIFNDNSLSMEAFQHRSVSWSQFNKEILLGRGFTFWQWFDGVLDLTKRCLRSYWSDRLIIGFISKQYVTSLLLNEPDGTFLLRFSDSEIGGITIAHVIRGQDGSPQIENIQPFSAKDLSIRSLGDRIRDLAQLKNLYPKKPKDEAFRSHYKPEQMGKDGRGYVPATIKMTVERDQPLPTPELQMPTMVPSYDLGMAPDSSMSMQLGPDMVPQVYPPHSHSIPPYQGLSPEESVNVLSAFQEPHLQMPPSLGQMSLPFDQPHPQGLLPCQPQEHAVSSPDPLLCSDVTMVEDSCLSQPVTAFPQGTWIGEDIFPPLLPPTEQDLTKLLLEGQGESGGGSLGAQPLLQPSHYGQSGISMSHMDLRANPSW
Method: Measurement of STAT 6 Tyrosine Phosphorylation
The H292 cell (ATCC) (5×10^5 cells/0.5 ml) was inoculated into a 12 well plate (IWAKI) and cultured overnight, and then stimulation with 10 ng/ml of human IL-4 (Genzyme techne) was carried out. In the case of the evaluation of compounds, compound dilutions were added to the wells 20 minutes before the IL-4 stimulation. Also, regarding the dilution of compounds, dilution was carried out using 10% FBS-containing RPMI 1640 such that the final concentration of DMSO in which each compound was dissolved became 0.1% or less. This was washed three times with ice-cooled physiological phosphate buffer 20 minutes after the IL-4 stimulation. After the washing, 100 μl/well of a cell lysis solution (TNE buffer: 10 mM Tris-HCl pH 7.8, 1% NP-40, 0.15 M NaCl, 1 mM EDTA, 10 μg/ml aprotinin, 1 mM NaF and 1 mM Na3VO4) was added. The cell lysate was recovered, and 15 μl thereof was subjected to western blotting after SDS electrophoresis using an anti-tyrosine phosphorylated STAT 6 antibody (Cell Signaling). Whether or not the tyrosine phosphorylation band of about 110 kDa is disappeared, which is IL-4 stimulation-dependently detected, was judged. Also, uniform transference of the STAT 6 protein was confirmed using the same transfer membrane by western blotting which used an anti-STAT 6 antibody (SantaCruz).

STAT 6 [2] = target: T2, STAT 6 (Mus musculus, UniProt P52633); test: STAT 6-dependent reporter activity (IL-4-stimulated CI/FW4 luciferase reporter cell); type: cell-based, human; settings: for Inh (%) 0.1 μM / inhibition at 0.1 µM: inhibition ratio at 0.1 μM compound; for Inh (%) 0.1 μM / Inh (%) 1 μM / inhibition at 0.1 µM / inhibition at 1 µM: IL-4-stimulated CI/FW4 cell, luciferase; for Inh (%) 1 μM / inhibition at 1 µM: inhibition ratio at 1 μM compound; for inhibition of STAT 6-dependent reporter activity (activity similar to the compounds of Table 26): CI/FW4 cell, 10 ng/ml human IL-4, luciferase
T2 construct: An STAT 6 reporter cell CI/FW4 was constructed by the above operation; endogenous in cells; host or cells: CI/FW4 (FW4 cell stably carrying the pGL2-CI/bs luciferase reporter)
T2 sequence (P52633 1-837): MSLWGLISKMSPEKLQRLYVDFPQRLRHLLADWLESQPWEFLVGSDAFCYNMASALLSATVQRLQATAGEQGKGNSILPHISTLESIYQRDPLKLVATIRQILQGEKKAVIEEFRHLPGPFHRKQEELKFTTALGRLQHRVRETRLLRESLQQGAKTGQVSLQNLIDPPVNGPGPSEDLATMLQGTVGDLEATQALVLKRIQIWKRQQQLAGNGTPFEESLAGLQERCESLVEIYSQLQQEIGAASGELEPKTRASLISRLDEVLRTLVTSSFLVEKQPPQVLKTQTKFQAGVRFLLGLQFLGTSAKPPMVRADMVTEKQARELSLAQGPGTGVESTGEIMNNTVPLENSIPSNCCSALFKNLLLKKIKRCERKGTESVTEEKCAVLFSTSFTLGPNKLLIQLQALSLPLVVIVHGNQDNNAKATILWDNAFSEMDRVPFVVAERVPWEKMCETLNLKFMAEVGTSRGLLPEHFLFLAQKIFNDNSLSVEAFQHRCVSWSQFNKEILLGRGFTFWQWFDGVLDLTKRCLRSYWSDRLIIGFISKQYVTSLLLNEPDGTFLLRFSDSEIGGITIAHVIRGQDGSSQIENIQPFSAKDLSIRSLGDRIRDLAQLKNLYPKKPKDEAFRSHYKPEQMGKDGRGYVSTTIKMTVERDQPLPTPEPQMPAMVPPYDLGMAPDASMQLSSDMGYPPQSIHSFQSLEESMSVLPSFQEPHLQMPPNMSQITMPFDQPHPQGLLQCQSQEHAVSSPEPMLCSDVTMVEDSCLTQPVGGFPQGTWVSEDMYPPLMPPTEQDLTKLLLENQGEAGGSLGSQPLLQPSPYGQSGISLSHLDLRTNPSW
Method: Measurement of STAT 6-Dependent Reporter Activity 1) Construction of STAT 6 Reactive Reporter Plasmid A STAT 6 reporter plasmid pGL2-CI was prepared by the following method. […] Also, […] sequence DNA molecules (SEQ ID NOs:3 and 4) contained in the adenovirus major late promoter were annealed and inserted into BglII and HindIII sites of the same vector. Thereafter, pGL2-CI/bs was constructed by inserting the blasticidin resistance gene of pUCSV-BD (Funakoshi) into BamHI site of the constructed pGL2-CI. 2) Construction of STAT 6 Reporter Cell Gene transfer of […] into a human IL-4 reactive cell FW4 cell (Mol. Cell. Biol., 14: 5433-5440) was carried out by the electroporation method (320 V, 960 μF/0.4 cm cuvette (Nippon Bio-Rad Laboratories)), and 6 μg/ml of blasticidin (Funakoshi) was added 40 hours thereafter to select a resistant cell. Confirmation of constant transfer of the reporter plasmid was carried out by detecting luciferase induce by IL-4 stimulation. An STAT 6 reporter cell CI/FW4 was constructed by the above operation. 3) STAT Reporter Assay Using CI/FW4 Cell Stimulation of the CI/FW4 cell (1×10^4 cells/0.1 ml) with 10 ng/ml of human IL-4 (Genzyme Techne) was carried out using a white 96 well plate (Nunc). In the case of the evaluation of compounds, compound dilutions were added to the wells before inoculating the cells into the 96 well plate. […] Thereafter, 50 μl of a luciferase substrate solution (10 mM Tris-HCl pH 7.8, 5 mM luciferin, 2 mM coenzyme A, 2 mM ATP, 0.5 mM MgCl2 and 2 mM Mg(OH)2) was added, followed by stirring for 1 minute. Then, the luciferase activity was measured using ML3000 luminometer (Dynatech Laboratories, Inc). Inhibitory activities of tested compounds were evaluated in which the luminescence intensity (relative light unit: […] The results are shown in the following Table 26.

inhibition of STAT 6 tyrosine phosphorylation (STAT 6 [1]) | Inh (%) 0.1 μM (STAT 6 [2]) [%] | Inh (%) 1 μM (STAT 6 [2]) [%] | inhibition at 0.1 µM (STAT 6 [2]) [%] | inhibition at 1 µM (STAT 6 [2]) [%] | inhibition of STAT 6-dependent reporter activity (activity similar to the compounds of Table 26) (STAT 6 [2]) | SMILES
completely inhibited | 100 | 100 | – | – | – | COC1CCCN(c2ccc(Nc3ncc(C(N)=O)c(NCc4c(F)ccc(F)c4F)n3)cc2)C1.Cl.Cl (stereo not drawn) [Example 192]
– | – | – | 33 | 91 | – | Cc1cccc(Nc2nc(Nc3ccc(CN(C)C)cc3)ncc2C(N)=O)c1 [Production Example 9, 2-({4-[(dimethylamino)methyl]phenyl}amino)-4-[(3-methylphenyl)amino]pyrimidine-5-carboxamide dihydrochloride]
– | – | – | – | – | good activity | NC(=O)c1cnc(Nc2ccc(N3CCOCC3)cc2)nc1NCc1c(F)cccc1Cl [Example 58]
– | 25 | 100 | – | – | – | NC(=O)c1cnc(Nc2ccc(OC3OC(CO)C(O)C(O)C3O)cc2)nc1NCc1c(F)ccc(F)c1F (stereo not drawn) [Example 233]
– | – | – | 91 | 100 | – | NC(=O)c1cnc(Nc2ccc(N3CCOCC3)cc2)nc1NC1CCCCC1 [Production Example 12, 4-cyclohexylamino-2-[(4-morpholinophenyl)amino]pyrimidine-5-carboxamide]
completely inhibited | 100 | 100 | – | – | – | NC(=O)c1cnc(Nc2ccc(N3CCN(CC(=O)O)CC3)cc2)nc1NCc1c(F)ccc(F)c1F [Example 190]
– | – | – | 48 | 96 | – | CNC(=O)c1cnc(NCCc2cc(Cl)c(O)c(Cl)c2)nc1Nc1cccc(C)c1 [Example 2, 2-{[2-(3,5-dichloro-4-hydroxyphenyl)ethyl]amino}-N-methyl-4-[(3-methylphenyl)amino]pyrimidine-5-carboxamide]
completely inhibited | 100 | 100 | – | – | – | Cl.NC(=O)c1cnc(Nc2ccc(N3CCCOCC3)cc2)nc1NCc1c(F)ccc(F)c1F [Example 191]
completely inhibited | 100 | 100 | – | – | – | CCOC(=O)CN1CCN(c2ccc(Nc3ncc(C(N)=O)c(NCc4c(F)ccc(F)c4F)n3)cc2)CC1 [Example 189]
– | – | – | – | – | good activity | NC(=O)c1cnc(Nc2ccc(N3CCOCC3)c(F)c2)nc1NCc1ccccc1 [Example 239]
– | 97 | 100 | – | – | – | NC(=O)c1cnc(Nc2ccc(N3CCOCC3)c(F)c2)nc1NCc1c(F)cccc1F [Example 244]
completely inhibited | 94 | 100 | – | – | – | CN(C)CC(=O)N1CCN(c2ccc(Nc3ncc(C(N)=O)c(NCc4ccccc4)n3)cc2)CC1.Cl.Cl [Example 148]
– | – | – | 67 | 100 | – | Cc1cccc(Nc2nc(NCCc3ccc(O)c(Br)c3)ncc2C(N)=O)c1 [Production Example 1, 2-{[2-(3-bromo-4-hydroxyphenyl)ethyl]amino}-4-[(3-methylphenyl)amino]pyrimidine-5-carboxamide]
– | 91 | 100 | – | – | – | CN(CC1CN(c2ccc(Nc3ncc(C(N)=O)c(NCc4ccccc4)n3)cc2)CCO1)S(C)(=O)=O.Cl (stereo not drawn) [Example 180]
completely inhibited | 100 | 100 | – | – | – | Cl.Cl.NC(=O)CN1CCN(c2ccc(Nc3ncc(C(N)=O)c(NCc4c(F)ccc(F)c4F)n3)cc2)CC1 [Example 201]

SMILES | inhibition of STAT 6 tyrosine phosphorylation (STAT 6 [1]) | Inh (%) 0.1 μM (STAT 6 [2]) [%] | Inh (%) 1 μM (STAT 6 [2]) [%] | inhibition at 0.1 µM (STAT 6 [2]) [%] | inhibition at 1 µM (STAT 6 [2]) [%] | inhibition of STAT 6-dependent reporter activity (activity similar to the compounds of Table 26) (STAT 6 [2])
NC(=O)c1cnc(Nc2ccc(N3CCOCC3)cc2)nc1NCc1cc(Cl)ccc1F [Example 39] | – | 100 | 100 | – | – | –
